In PubChem BioAssay AID248 (DTP/NCI, 2004):
“And” between values parts separate entries of the source, which are not always exact repeats. Equal values may be shown once. Inconclusive results and toxic doses are left out.

System: L1210 leukemia ip in BDF1 mice, survival T/C
Assay: NCI In Vivo Anticancer Drug Screen. Data for tumor model L1210 Leukemia (intraperitoneal) in B6D2F1 (BDF1) mice
Conditions: higher = longer survival
How it was run: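 Transplantable tumor model; survival measured in treated vs vehicle control mice. Value = treated/control.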

With `O=c1[nH]c(=O)n([C@H]2CCCO2)cc1F` the T/C (endpoint: mean survival time, dose: 600.0 mg/kg/injection, schedule: Q04DX003 (ip), vehicle: other) was 116 % of control, the T/C (endpoint: mean survival time, dose: 600.0 mg/kg/injection, schedule: Q04DX003 (ip), vehicle: saline with Tween-80) was 124 % of control and the T/C (endpoint: mean survival time, dose: 640.0 mg/kg/injection, schedule: Q01DX009 (ip), vehicle: saline) was 104 % of control. The T/C (endpoint: mean survival time, dose: 700.0 mg/kg/injection, schedule: Q01DX001 (ip), vehicle: other) was 111 % of control, the T/C (endpoint: mean survival time, dose: 700.0 mg/kg/injection, schedule: Q01DX001 (sc), vehicle: other) was 111 % of control and the T/C (endpoint: mean survival time, dose: 781.0 mg/kg/injection, schedule: Q04DX002 (sc), vehicle: clinical formulation) was 100 % of control. For the same molecule, the T/C (endpoint: mean survival time, dose: 977.0 mg/kg/injection, schedule: Q01DX001 (sc), vehicle: clinical formulation) was 107 % of control, the T/C (endpoint: mean survival time, dose: 1000.0 mg/kg/injection, schedule: Q01DX001 (ip), vehicle: other) was 96 % of control and the T/C (endpoint: mean survival time, dose: 1200.0 mg/kg/injection, schedule: Q04DX003 (ip), vehicle: other) was 93 % of control. The T/C (endpoint: mean survival time, dose: 1300.0 mg/kg/injection, schedule: Q01DX001 (ip), vehicle: Klucel (hydroxypropylcellulose) (HPC)) was 150 % of control, the T/C (endpoint: mean survival time, dose: 1428.0 mg/kg/injection, schedule: Q01DX001 (ip), vehicle: other) was 102 % of control and the T/C (endpoint: mean survival time, dose: 1428.0 mg/kg/injection, schedule: Q01DX001 (sc), vehicle: other) was 101 % of control. The T/C (endpoint: mean survival time, dose: 2300.0 mg/kg/injection, schedule: Q01DX001 (ip), vehicle: Klucel (hydroxypropylcellulose) (HPC)) was 115 % of control, the T/C (endpoint: median survival time, dose: 5.0 mg/kg/injection, schedule: Q03HX008 (ip), vehicle: other) was 95 % of control and the T/C (endpoint: median survival time, dose: 5.0 mg/kg/injection, schedule: Q03HX024 (ip), vehicle: other) was 95 % of control. The T/C (endpoint: median survival time, dose: 9.0 mg/kg/injection, schedule: Q03HX008 (ip), vehicle: other) was 96 % of control, the T/C (endpoint: median survival time, dose: 9.0 mg/kg/injection, schedule: Q03HX024 (ip), vehicle: other) was 102 % of control and the T/C (endpoint: median survival time, dose: 14.0 mg/kg/injection, schedule: Q01DX009 (ip), vehicle: other) was 100 % of control. The T/C (endpoint: median survival time, dose: 14.0 mg/kg/injection, schedule: Q03HX008 (ip), vehicle: other) was 94 % of control, the T/C (endpoint: median survival time, dose: 14.0 mg/kg/injection, schedule: Q03HX024 (ip), vehicle: other) was 96 % of control and the T/C (endpoint: median survival time, dose: 23.0 mg/kg/injection, schedule: Q01DX009 (ip), vehicle: other) was 103 % of control. For the same molecule, the T/C (endpoint: median survival time, dose: 23.0 mg/kg/injection, schedule: Q03HX008 (ip), vehicle: other) was 93 % of control, the T/C (endpoint: median survival time, dose: 23.0 mg/kg/injection, schedule: Q03HX024 (ip), vehicle: other) was 103 % of control and the T/C (endpoint: median survival time, dose: 39.0 mg/kg/injection, schedule: Q04DX003 (ip), vehicle: other) was 111 % of control. The T/C (endpoint: median survival time, dose: 39.0 mg/kg/injection, schedule: Q04DX003 (oral), vehicle: other) was 100 % of control, the T/C (endpoint: median survival time, dose: 39.0 mg/kg/injection, schedule: Q04DX003 (sc), vehicle: other) was 106 % of control and the T/C (endpoint: median survival time, dose: 65.0 mg/kg/injection, schedule: Q01DX001 (ip), vehicle: other) was 100 % of control. For the same molecule, the T/C (endpoint: median survival time, dose: 65.0 mg/kg/injection, schedule: Q01DX009 (ip), vehicle: other) was 104 % of control, the T/C (endpoint: median survival time, dose: 65.0 mg/kg/injection, schedule: Q04DX003 (ip), vehicle: other) was 95 % of control and the T/C (endpoint: median survival time, dose: 65.0 mg/kg/injection, schedule: Q04DX003 (oral), vehicle: other) was 103 % of control. The T/C (endpoint: median survival time, dose: 65.0 mg/kg/injection, schedule: Q04DX003 (sc), vehicle: other) was 101 % of control, the T/C (endpoint: median survival time, dose: 75.0 mg/kg/injection, schedule: Q04DX003 (ip), vehicle: water) was 95 % of control and the T/C (endpoint: median survival time, dose: 108.0 mg/kg/injection, schedule: Q01DX001 (ip), vehicle: other) was 122 % of control. For the same molecule, the T/C (endpoint: median survival time, dose: 108.0 mg/kg/injection, schedule: Q04DX003 (ip), vehicle: other) was 100 % of control and 106 % of control, the T/C (endpoint: median survival time, dose: 108.0 mg/kg/injection, schedule: Q04DX003 (oral), vehicle: other) was 118 % of control and the T/C (endpoint: median survival time, dose: 108.0 mg/kg/injection, schedule: Q04DX003 (sc), vehicle: other) was 113 % of control. For the same molecule, the T/C (endpoint: median survival time, dose: 150.0 mg/kg/injection, schedule: Q04DX003 (ip), vehicle: water) was 101 % of control, the T/C (endpoint: median survival time, dose: 180.0 mg/kg/injection, schedule: Q01DX001 (ip), vehicle: other) was 106 % of control and the T/C (endpoint: median survival time, dose: 180.0 mg/kg/injection, schedule: Q04DX003 (ip), vehicle: other) was 105 % of control and 112 % of control. For the same molecule, the T/C (endpoint: median survival time, dose: 180.0 mg/kg/injection, schedule: Q04DX003 (sc), vehicle: other) was 108 % of control, the T/C (endpoint: median survival time, dose: 300.0 mg/kg/injection, schedule: Q04DX003 (oral), vehicle: other) was 118 % of control and the T/C (endpoint: median survival time, dose: 500.0 mg/kg/injection, schedule: Q04DX003 (oral), vehicle: other) was 164 % of control. The T/C (endpoint: median survival time, dose: 833.0 mg/kg/injection, schedule: Q04DX003 (ip), vehicle: other) was 118 % of control, the T/C (endpoint: median survival time, dose: 833.0 mg/kg/injection, schedule: Q04DX003 (sc), vehicle: other) was 160 % of control and the T/C (endpoint: median survival time, dose: 1200.0 mg/kg/injection, schedule: Q04DX003 (ip), vehicle: water) was 110 % of control. For the same molecule, the T/C (endpoint: median survival time, dose: 1300.0 mg/kg/injection, schedule: Q01DX001 (ip), vehicle: other) was 104 % of control.
